pIC50: −log10 of the molar value. Like-named read-outs stand apart in the source and are kept apart here.
Legend:
[1] = biological target: T1, soybean lipoxygenase (LOX) (Glycine max, UniProt P08170); experiment: In vitro inhibition of soybean lipoxygenase (LOX); type: biochemical; conditions: for LOX Inhibition (%) / inhibition at 100 µM: tested at 100 µM, no = no activity under the experimental conditions; for LOX Inhibition (%): 100 µM
T1 construct: purchased Aldrich Chemical Co. (Milwaukee, WI, USA)
T1 sequence (P08170 1-839): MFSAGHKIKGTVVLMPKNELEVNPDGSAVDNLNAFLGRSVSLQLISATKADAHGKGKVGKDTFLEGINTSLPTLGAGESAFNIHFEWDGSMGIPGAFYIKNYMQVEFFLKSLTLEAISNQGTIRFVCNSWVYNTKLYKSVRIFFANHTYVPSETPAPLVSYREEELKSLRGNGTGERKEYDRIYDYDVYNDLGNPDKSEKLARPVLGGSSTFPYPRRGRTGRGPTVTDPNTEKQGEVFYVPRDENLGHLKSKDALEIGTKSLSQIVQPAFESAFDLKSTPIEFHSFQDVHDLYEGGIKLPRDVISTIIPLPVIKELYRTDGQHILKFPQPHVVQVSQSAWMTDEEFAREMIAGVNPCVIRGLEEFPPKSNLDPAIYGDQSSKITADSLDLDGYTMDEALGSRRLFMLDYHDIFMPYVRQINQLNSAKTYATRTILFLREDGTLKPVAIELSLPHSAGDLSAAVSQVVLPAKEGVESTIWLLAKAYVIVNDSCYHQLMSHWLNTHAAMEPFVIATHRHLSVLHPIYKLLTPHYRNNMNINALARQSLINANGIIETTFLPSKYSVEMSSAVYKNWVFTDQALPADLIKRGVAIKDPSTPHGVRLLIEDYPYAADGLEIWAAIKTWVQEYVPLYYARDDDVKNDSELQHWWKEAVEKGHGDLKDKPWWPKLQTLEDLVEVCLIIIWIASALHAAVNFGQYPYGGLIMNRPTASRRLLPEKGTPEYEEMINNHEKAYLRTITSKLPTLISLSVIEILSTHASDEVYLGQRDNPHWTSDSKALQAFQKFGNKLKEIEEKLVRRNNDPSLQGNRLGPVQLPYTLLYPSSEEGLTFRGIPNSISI
Experimental: The in vitro antioxidant assays for nitrones 8 and 9 were performed concentrations of 100 µM (from a stock solution 10 mM in 0.1% DMSO in deionized water). Several dilutions were made when the determination of IC50 values was needed. […] The nitrones were diluted under sonification in the appropriate buffer in several dilutions (Table 1).
The in vitro study was evaluated as reported previously. Compounds 8a–f or 9a–f (10 μL) were incubated at rt with sodium linoleate (0.1 mM) and 200 μL of enzyme solution (1/9 × 10^–4 w/v in saline). Tris buffer pH 9 was inserted. The conversion of sodium linoleate to 13-hydroperoxylinoleic acid was recorded at 234 nm. […] Several dilutions of compounds were used for the determination of IC50 values. Blank determination served as the negative control.

[2] = ABTS radical cation decolorization assay; conditions: tested at 100 µM, 1 min, 734 nm; no = no activity
Experimental: (§1) The in vitro antioxidant assays for nitrones 8 and 9 were performed concentrations of 100 µM (from a stock solution 10 mM in 0.1% DMSO in deionized water). Several dilutions were made when the determination of IC50 values was needed. All the determinations were made, at least in triplicate, and the standard deviation of absorbance was less than 10% of the mean. The nitrones were diluted under sonification in the appropriate buffer in several dilutions (Table 1).
ABTS stock solution in water (7 mM) was mixed with potassium persulfate (2.45 mM) and left in the dark at rt for 12–16 h before use, followed by the production of the ABTS radical cation (ABTS^+·). The assay was performed as described previously. The results were recorded after 1 min of the mixing solutions at 734 nm. Trolox was used as a positive control.

[3] = Competition with DMSO for hydroxyl radicals; conditions: tested at 100 µM, Fe3+/ascorbic acid system, 37 °C, 30 min; no = no activity
Experimental: as §1
The hydroxyl radicals, produced by the Fe^3+/ascorbic acid system, were detected by the determination of formaldehyde produced from the oxidation of DMSO [8]. Solutions of EDTA (0.1 mM), Fe^3+ (167 μM), DMSO (33 mM) in phosphate buffer (50 mM, pH 7.4), as well as the tested compounds (10 μL final concentration 100 μM) and ascorbic acid (10 mM) were mixed in test tubes and incubated at 37 °C for 30 min. The reaction was stopped by adding CCl3COOH (17% w/v), and the % competition activity of the nitrones 8 and 9 with DMSO for hydroxyl radicals was calculated. Trolox was used as a positive control.

[4] = Inhibition of linoleic acid peroxidation (ILP) induced by AAPH; conditions: tested at 100 µM, 37 °C
Experimental: as §1
The production of conjugated diene hydroperoxide by the oxidation of linoleate sodium 16 mM linoleate sodium (10 µL) in an aqueous solution is monitored at 234 nm. AAPH 40 mM (50 µL) is used as a free radical initiator at 37 °C under air conditions, followed by the tested nitrones. This assay can be used to follow oxidative changes by recording the absorbance values at 234 nm, using Trolox as a reference compound. The experimental procedure follows our previously reported protocol.

[5] = soybean LOX, sodium linoleate 0.1 mM, Tris buffer pH 9, read-out: LOX Inhibition IC50

melting point [°C] | LOX Inhibition (%) [1] | pIC50 [1, 5] | inhibition at 100 µM [1] [%] | pIC50 [1] | LOX Inhibition IC50 ([1]; soybean LOX, sodium linoleate 0.1 mM, Tris buffer pH 9) | LOX inhibition, fold less potent than NDGA ([1]; IC50 27 μM vs NDGA […]) [fold] | SMILES | ABTS+• (%) [2] | Scavenging Activity for HO• (%) [3] | ILP (%) [4] [%]
94 to 95 | no inhibition and no |  |  |  |  |  | CC(C)(C)[N+]([O-])=CCn1cc(-c2cccc(F)c2)nn1 [Nitrone 9c, N-(2-(4-(3-Fluorophenyl)-1H-1,2,3-Triazol-1-yl)Ethylidene)-2-Methylpropan-2-Amine Oxide] | no | 89% | 
97 to 98 |  | 4.43 |  |  |  |  | C[N+]([O-])=CCn1cc(-c2ccccc2)nn1 [Nitrone 8a, N-(2-(4-Phenyl-1H-1,2,3-Triazol-1-yl)Ethylidene)Methanamine Oxide] | 14% | 93% | 48.4
72 to 73 |  | 4.40 |  |  |  |  | CC(C)(C)[N+]([O-])=CCn1cc(-c2ccccc2F)nn1 [Nitrone 9b, N-(2-(4-(2-Fluorophenyl)-1H-1,2,3-Triazol-1-yl)Ethylidene)-2-Methylpropan-2-Amine Oxide] | no | 76% | 73
158 to 160 |  |  | 40 |  |  |  | C[N+]([O-])=CCn1cc(-c2cccc(F)c2)nn1 [Nitrone 8c, N-(2-(4-(3-Fluorophenyl)-1H-1,2,3-Triazol-1-yl)Ethylidene)Methanamine Oxide] | no | 59% | 65
122 to 123 |  |  |  | 4.06 |  |  | C[N+]([O-])=CCn1cc(-c2ccc(F)cc2F)nn1 [Nitrone 8e, N-(2-(4-(2,4-Difluorophenyl)-1H-1,2,3-Triazol-1-yl)Ethylidene)Methanamine Oxide] | no | 76% | 87
165 to 167 | loses its activity and no |  |  |  |  |  | C[N+]([O-])=CCn1cc(-c2ccc(F)cc2)nn1 [Nitrone 8d, N-(2-(4-(4-Fluorophenyl)-1H-1,2,3-Triazol-1-yl)Ethylidene)Methanamine Oxide] | 5.3% | 80% | 54
 |  |  |  |  |  |  | Cc1c(C)c2c(c(C)c1O)CCC(C)(C(=O)O)O2 (stereo not drawn) [Trolox, reference compound] | 91% | 88% | 93
122 to 123 |  | 4.00 |  |  | equipotent to the 9d |  | CC(C)(C)[N+]([O-])=CCn1cc(-c2ccc(F)cc2F)nn1 [Nitrone 9e, N-(2-(4-(2,4-Difluorophenyl)-1H-1,2,3-Triazol-1-yl)Ethylidene)-2-Methylpropan-2-Amine Oxide] | no | 100% | 100
171 to 173 |  |  | 44 |  |  |  | Cc1cc(-c2cn(CC=[N+](C)[O-])nn2)ccc1F [Nitrone 8f, N-(2-(4-(4-Fluoro-3-Methylphenyl)-1H-1,2,3-Triazol-1-yl)Ethylidene)Methanamine Oxide] | 34.3% | 91.5% | 41
104 to 107 |  | 4.57 |  |  |  | 60 | Cc1cc(-c2cn(CC=[N+]([O-])C(C)(C)C)nn2)ccc1F [Nitrone 9f, N-(2-(4-(4-Fluoro-3-Methylphenyl)-1H-1,2,3-Triazol-1-yl)Ethylidene)-2-Methylpropan-2-Amine Oxide] | 16% | 99.9% | 87
91 to 93 |  |  | 44 |  |  |  | CC(C)(C)[N+]([O-])=CCn1cc(-c2ccccc2)nn1 [Nitrone 9a, 2-Methyl-N-(2-(4-Phenyl-1H-1,2,3-Triazol-1-yl)Ethylidene)Propan-2-Amine Oxide] | 4% | 76% | 74.5
128 to 131 |  | 4.00 |  |  |  |  | CC(C)(C)[N+]([O-])=CCn1cc(-c2ccc(F)cc2)nn1 [Nitrone 9d, N-(2-(4-(4-Fluorophenyl)-1H-1,2,3-Triazol-1-yl)Ethylidene)-2-Methylpropan-2-Amine Oxide] | no | 99% | 
125 to 126 |  |  | 24 |  |  |  | C[N+]([O-])=CCn1cc(-c2ccccc2F)nn1 [Nitrone 8b, N-(2-(4-(2-Fluorophenyl)-1H-1,2,3-Triazol-1-yl)Ethylidene)Methanamine Oxide] | 13% | 61% | 2
 |  |  |  |  |  |  | CC(C)(C)/[N+]([O-])=C/c1ccccc1 [PBN, (Z)-N-tert-butyl-1-phenylmethanimine oxide, reference compound] | 5% | no | 11

Reference: publication PMC9854728, “Synthesis and Antioxidant Properties of Novel 1,2,3-Triazole-Containing Nitrones” (Antioxidants, 2022)
